How the values were obtained:
healthy subjects = conditions: cited from earlier work
5-HT1a receptor = biological target: T1, 5-HT1a receptor (Homo sapiens, UniProt P08908); conditions: functional tests; cited from earlier work
T1 sequence (P08908 1-422): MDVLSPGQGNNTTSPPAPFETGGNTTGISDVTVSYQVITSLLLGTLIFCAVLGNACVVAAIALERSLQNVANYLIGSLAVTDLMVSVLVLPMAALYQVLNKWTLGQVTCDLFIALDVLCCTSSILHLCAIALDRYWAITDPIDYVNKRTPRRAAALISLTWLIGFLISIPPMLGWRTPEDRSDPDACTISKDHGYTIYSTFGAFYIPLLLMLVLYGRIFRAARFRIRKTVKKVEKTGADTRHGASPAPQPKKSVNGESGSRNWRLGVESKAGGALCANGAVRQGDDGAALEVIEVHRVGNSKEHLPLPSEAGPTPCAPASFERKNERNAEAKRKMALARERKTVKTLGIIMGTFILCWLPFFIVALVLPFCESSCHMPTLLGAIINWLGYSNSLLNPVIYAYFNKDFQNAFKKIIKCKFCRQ

[1] = tested on: Young, healthy, male Wistar Han rats; assay: S-Pindolol in young healthy rats, 16 days: body weight, lean mass, organ weights; type: in vivo, rat; conditions: for Gastrocnemius organ weight at the end of the study: gavage once daily, placebo 1234 ± 30; for Soleus organ weight at the end of the study / EDL organ weight at the end of the study / Tibialis organ weight at the end of the study: gavage; for Soleus organ weight at the end of the study: placebo 97 ± 2; for EDL organ weight at the end of the study: placebo 104 ± 3; for Tibialis organ weight at the end of the study: placebo 447 ± 9; for EDL percent increase in weight / Soleus percent increase in weight: versus placebo
Protocol: Young, healthy, male Wistar Han rats (201.8±2.4 g) were housed in groups of two to three per cage under standard conditions. Animals were randomized to receive either 0.3 mg S-Pindolol/kg/d (n=5), 3 mg S-Pindolol/kg/d (n=5) or placebo (n=16) once daily per gavage for 16 days. Body composition (lean mass) of the animals was analyzed using the EchoMRI-700 system (Echo Medical Systems, Houston, Tex., USA) before treatment and at the end of the study. Body weight was recorded before treatment and at the end of study. Organ weights were recorded at the end of study.

[2] = tested on: Old, healthy, male Wistar Han rats; assay: S-Pindolol in old (19 month) rats, 28 days: body weight, lean mass, organ weights; type: in vivo, rat; conditions: 3 mg/kg/d
Protocol: Old, healthy, male Wistar Han rats (age 19 month, at the start of the experiment) were housed in groups of two to three per cage under standard laboratory conditions. Animals were randomized to receive either 3 mg/kg/d S-Pindolol/kg/d (n=8), or placebo (n=14) once daily per gavage for 28 days. Body composition (lean mass) of the animals was analyzed using the EchoMRI-700 system (Echo Medical Systems, Houston, Tex., USA) before treatment, once per week during the study and at the end of the study. Body weight was recorded before treatment, once per week during the study and at the end of study. Organ weights were recorded at the end of study. One tibialis muscle per animals was dried at 60° C. for 48 h.

In the case of `CC(C)NCC(O)COc1cccc2[nH]ccc12` (racemic) [racemic pindolol], the “Effect on diastolic blood pressure” value (healthy subjects; healthy subjects, similar dose) is given as “reducing”.

For `CC(C)NC[C@@H](O)COc1cccc2ccccc12` [(R)-propranolol], the “Block of the suppressant effects of 5-HT1a agonists on dorsal raphe neuronal firing” value (5-HT1a receptor) is listed as “not”.

For `CC(C)NC[C@H](O)COc1cccc2ccccc12` [(S)-propranolol, (S)-1-isopropylamino-3-(1-naphthyloxy)-2-propanol], the “Block of the suppressant effects of 5-HT1a agonists on dorsal raphe neuronal firing” value (5-HT1a receptor) is given as “blocked”.

In the case of `CC(C)NC[C@H](O)COc1cccc2[nH]ccc12` [S-Pindolol, S-(−)-1-(1H-indol-4-yloxy)-3-(1-methylethylamino)propan-2-ol], the “Gastrocnemius organ weight at the end of the study” value (shortened to “Gastrocnemius organ weight”) ([1]; 0.3 mg/kg/d) is reported as 1420 ± 35 mg, the “Soleus organ weight at the end of the study” value (“Soleus organ weight at the end” below) ([1]; 0.3 mg/kg/d) is reported as 107 ± 2 mg and the “EDL organ weight at the end of the study” value ([1]; 0.3 mg/kg/d) is reported as 124 ± 6 mg. For the same compound, the “Tibialis organ weight at the end of the study” value (“Tibialis organ weight” below) ([1]; 0.3 mg/kg/d) was 526 ± 15 mg, the “EDL percent increase in weight” value ([1]; 0.3 mg/kg/d) was “+19.2%” and the “Soleus percent increase in weight” value ([1]; 0.3 mg/kg/d) was “+10.3%”. The “Gastrocnemius organ weight” value ([1]; 3 mg/kg/d) was 1492 ± 37 mg, the “Soleus organ weight at the end” value ([1]; 3 mg/kg/d) was 103 ± 3 mg and the “EDL organ weight at the end of the study” value ([1]; 3 mg/kg/d) was 126 ± 4 mg. For the same compound, the “Tibialis organ weight” value ([1]; 3 mg/kg/d) was 535 ± 22 mg, the “EDL percent increase in weight” value ([1]; 3 mg/kg/d) was “+21.1%” and the “Soleus percent increase in weight” value ([1]; 3 mg/kg/d) was “+6.2%”. The “Lean body mass (i.e. muscle mass)” value ([1]; 0.3 and 3 mg/kg/d, EchoMRI, FIG. 2) was “dose dependently increased”, the “Body weight (weight gain during treatment)” value ([1]; high dose (3 mg/kg/d), FIG. 1, p=0.0002 vs placebo) was “significantly increased” and the “Tibialis organ weight” value ([2]; gavage, old rats, placebo 827 ± 34) was 1034 ± 46 mg. For the same compound, the “Gastrocnemius organ weight” value ([2]; gavage, old rats, placebo 2283 ± 78) was 2914 ± 133 mg, the “Lean body mass (i.e. muscle mass)” value ([2]; old rats, EchoMRI, FIGS. 7, 8) was “increased” and the “Body weight (change during the treatment period)” value ([2]; old rats, FIGS. 4, 5) was “significantly increased”. It also gave a Tibialis dry mass ([2]; old rats, dried at 60° C. for 48 h, placebo 227 ± 9) of 276 ± 12 mg, a Tibialis dry mass ([2]; old rats, placebo 27.89 ± 0.78) of 27.12 ± 0.46% and a Tibialis water ([2]; old rats, placebo 72.1 ± 0.78) of 72.88 ± 0.46%. The “Soleus organ weight at the end” value ([2]; old rats, placebo 181 ± 11) was 173 ± 9 mg, the “EDL organ weight at the end of the study” value ([2]; old rats, placebo 197 ± 9) was 236 ± 5 mg and the “Lean mass increase compared to baseline” value ([2]; senile rats, placebo lost 1.5%) was 12.7%. For the same compound, the “Alteration in blood pressure” value (healthy subjects; in vivo) was “no alteration”.
